The assay has as its target T1, mTOR (Homo sapiens, UniProt P42345).
T1 construct: FLAG; made in house
Briefly: In Vitro mTOR Kinase Assay (Echo), Test (a)(ii). Type of assay: biochemical. The note with it: table of enzyme assay Test (a)(ii); read-out: Test (a)(ii) IC50. In outline:
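FLAG-tagged truncated mTOR (residues 1362-2549), expressed in HEK293 and purified via the FLAG tag, phosphorylated a biotinylated peptide over 2 hours at room temperature. EDTA stopped the reaction. Phospho-T389 was detected overnight by AlphaScreen using the p70 S6K T389 antibody with Protein A/streptavidin beads; IC50 reported.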

The values that follow come from patent US20090018134A1, “Compounds - 945” (AstraZeneca AB, priority 2007, published 2009).

T1 sequence (P42345 1362-2549): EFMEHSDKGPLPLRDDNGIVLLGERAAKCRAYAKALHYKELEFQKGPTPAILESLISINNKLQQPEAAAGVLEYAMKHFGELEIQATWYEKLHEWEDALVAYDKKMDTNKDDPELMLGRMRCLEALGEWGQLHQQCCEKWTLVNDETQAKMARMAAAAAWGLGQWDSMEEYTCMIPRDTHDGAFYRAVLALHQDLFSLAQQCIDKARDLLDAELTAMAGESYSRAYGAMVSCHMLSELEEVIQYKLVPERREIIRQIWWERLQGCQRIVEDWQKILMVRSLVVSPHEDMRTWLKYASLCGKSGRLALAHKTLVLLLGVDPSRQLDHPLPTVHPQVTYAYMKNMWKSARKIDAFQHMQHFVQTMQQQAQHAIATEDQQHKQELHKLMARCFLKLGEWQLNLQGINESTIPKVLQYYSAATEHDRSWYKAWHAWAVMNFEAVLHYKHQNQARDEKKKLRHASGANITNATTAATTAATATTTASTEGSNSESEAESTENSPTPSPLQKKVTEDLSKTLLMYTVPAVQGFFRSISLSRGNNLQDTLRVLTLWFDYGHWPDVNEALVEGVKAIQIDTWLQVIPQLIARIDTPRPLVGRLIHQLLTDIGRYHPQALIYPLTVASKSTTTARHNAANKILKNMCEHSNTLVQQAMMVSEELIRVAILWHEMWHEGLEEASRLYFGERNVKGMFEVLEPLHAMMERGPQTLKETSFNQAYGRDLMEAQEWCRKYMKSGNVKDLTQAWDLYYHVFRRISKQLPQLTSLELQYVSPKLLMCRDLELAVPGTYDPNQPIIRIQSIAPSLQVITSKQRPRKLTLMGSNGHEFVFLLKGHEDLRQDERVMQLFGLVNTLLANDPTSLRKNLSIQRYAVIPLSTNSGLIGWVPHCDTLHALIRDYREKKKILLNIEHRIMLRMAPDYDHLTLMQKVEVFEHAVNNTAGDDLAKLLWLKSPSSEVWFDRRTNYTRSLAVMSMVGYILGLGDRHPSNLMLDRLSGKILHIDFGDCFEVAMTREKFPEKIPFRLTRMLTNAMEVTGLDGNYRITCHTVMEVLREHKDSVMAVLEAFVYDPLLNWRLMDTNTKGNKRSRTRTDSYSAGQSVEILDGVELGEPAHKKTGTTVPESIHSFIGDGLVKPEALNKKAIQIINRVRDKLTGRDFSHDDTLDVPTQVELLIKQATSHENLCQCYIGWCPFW

A word on the IC50: it is the midpoint of a concentration-inhibition curve. For `C[C@H]1COCCN1c1cc(C2(S(=O)(=O)c3ccc(OC(F)F)cc3)CC2)nc(-c2ccc(NC(=O)NCCF)cc2)n1` [Example 64e, 1-[4-[4-[1-[4-(difluoromethoxy)phenyl]sulfonyl-cyclopropyl]-6-[(3S)-3-methylmorpholin-4-yl]pyrimidin-2-yl]phenyl]-3-(2-fluoroethyl)urea], the half-maximal inhibitory concentration (IC50) was 5.37 nM. In the case of `C[C@H]1COCCN1c1cc(C2(S(=O)(=O)c3ccc(OC(F)F)cc3)CC2)nc(-c2ccc(NC(=O)NCC(F)F)cc2)n1` [Example 64f, 3-(2,2-difluoroethyl)-1-[4-[4-[1-[4-(difluoromethoxy)phenyl]sulfonyl-cyclopropyl]-6-[(3S)-3-methylmorpholin-4-yl]pyrimidin-2-yl]phenyl]urea] it was 5.21 nM.

For `CNC(=O)Nc1ccc(-c2nc(N3CCOC[C@@H]3C)cc(C3(S(=O)(=O)c4ccc(F)c(F)c4)CC3)n2)cc1` [Example 64g, 1-[4-[4-[1-(3,4-difluorophenyl)sulfonylcyclopro-pyl]-6-[(3S)-3-methylmorpholin-4-yl]pyrimidin-2-yl]phenyl]-3-methylurea], the IC50 was determined as 34.2 nM. The same measure for `CCNC(=O)Nc1ccc(-c2nc(N3CCOC[C@@H]3C)cc(C3(S(=O)(=O)c4ccc(F)c(F)c4)CC3)n2)cc1` [Example 64h, 3-[4-[4-[1-(3,4-difluorophenyl)sulfonylcyclopro-pyl]-6-[(3S)-3-methylmorpholin-4-yl]pyrimidin-2-yl]phenyl]-1-ethylurea]: 1.48 nM; for `C[C@H]1COCCN1c1cc(C2(S(=O)(=O)c3ccc(F)c(F)c3)CC2)nc(-c2ccc(NC(=O)NC3CC3)cc2)n1` [Example 64i, 3-cyclopropyl-1-[4-[4-[1-(3,4-difluorophenyl)sulfonylcyclopro-pyl]-6-[(3S)-3-methylmorpholin-4-yl]pyrimidin-2-yl]phenyl]urea]: 1.35 nM. In the case of `C[C@H]1COCCN1c1cc(C2(S(=O)(=O)c3ccc(F)c(F)c3)CC2)nc(-c2ccc(NC(=O)NCCO)cc2)n1` [Example 64j, 1-[4-[4-[1-(3,4-difluorophenyl)sulfonylcyclopro-pyl]-6-[(3S)-3-methylmorpholin-4-yl]pyrimidin-2-yl]phenyl]-3-(2-hydroxyethyl)urea] it was 1.2 nM; in that of `C[C@H]1COCCN1c1cc(C2(S(=O)(=O)c3ccc(F)c(F)c3)CC2)nc(-c2ccc(NC(=O)Nc3cnn(C)c3)cc2)n1` [Example 64k, 1-[4-[4-[1-(3,4-difluorophenyl)sulfonylcyclopro-pyl]-6-[(3S)-3-methylmorpholin-4-yl]pyrimidin-2-yl]phenyl]-3-(1-methylpyrazol-4-yl)urea], 1.44 nM. The same measure for `C[C@H]1COCCN1c1cc(C2(S(=O)(=O)c3ccc(F)c(F)c3)CC2)nc(-c2ccc(NC(=O)NCCF)cc2)n1` [Example 64l, 1-[4-[4-[1-(3,4-difluorophenyl)sulfonylcyclopro-pyl]-6-[(3S)-3-methylmorpholin-4-yl]pyrimidin-2-yl]phenyl]-3-(2-fluoroethyl)urea]: 1.11 nM. In the case of `C[C@H]1COCCN1c1cc(C2(S(=O)(=O)c3ccc(F)c(F)c3)CC2)nc(-c2ccc(NC(=O)NCC(F)F)cc2)n1` [Example 64m, 3-(2,2-difluoroethyl)-1-[4-[4-[1-(3,4-difluorophenyl)sulfonylcyclo-propyl]-6-[(3S)-3-methylmorpholin-4-yl]pyrimidin-2-yl]phenyl]urea], the IC50 stood at 40.8 nM. Consider `C[C@H]1COCCN1c1cc(C2(S(=O)(=O)c3ccc(NCCO)c(F)c3)CC2)nc(-c2ccc(NC(=O)NCCO)cc2)n1` [Example 64n, 1-[4-[4-[1-[3-fluoro-4-(2-hydroxyethylamino)phenyl]sulfon-ylcyclopropyl]-6-[(3S)-3-methylmorpholin-4-yl]pyrimidin-2-yl]phenyl]-3-(2-hydroxyethyl)urea], for which the IC50 was found to be 16.1 nM.

Consider `C[C@H]1COCCN1c1cc(C2(S(=O)(=O)c3ccccc3)CCC2)nc(-c2ccc(NC(=O)NC(C)(C)CO)cc2)n1` [Example 64o, 1-[4-[4-[1-(benzenesulfonyl)cyclobutyl]-6-[(3S)-3-methylmorpholin-4-yl]pyrimidin-2-yl]phenyl]-3-(1-hydroxy-2-methylpropan-2-yl)urea], for which the IC50 turned out to be 3.45 nM.

Regarding `C[C@@H](CO)NC(=O)Nc1ccc(-c2nc(N3CCOC[C@@H]3C)cc(C3(S(=O)(=O)c4ccccc4)CCC3)n2)cc1` [Example 64p, 1-[4-[4-[1-(benzenesulfonyl)cyclobutyl]-6-[(3S)-3-methylmorpholin-4-yl]pyrimidin-2-yl]phenyl]-3-[(2S)-1-hydroxypropan-2-yl]urea], the IC50 amounted to 3.98 nM.

`C[C@H](CO)NC(=O)Nc1ccc(-c2nc(N3CCOC[C@@H]3C)cc(C3(S(=O)(=O)c4ccccc4)CCC3)n2)cc1` [Example 64q, 1-[4-[4-[1-(benzenesulfonyl)cyclobutyl]-6-[(3S)-3-methylmorpholin-4-yl]pyrimidin-2-yl]phenyl]-3-[(2R)-1-hydroxypropan-2-yl]urea]: the IC50 was 4.67 nM. The same measure for `C[C@H]1COCCN1c1cc(C2(S(=O)(=O)c3ccccc3)CCC2)nc(-c2ccc(NC(=O)NCCCO)cc2)n1` [Example 64r, 1-[4-[4-[1-(benzenesulfonyl)cyclobutyl]-6-[(3S)-3-methylmorpholin-4-yl]pyrimidin-2-yl]phenyl]-3-(3-hydroxypropyl)urea]: 4.18 nM. For `C[C@H]1COCCN1c1cc(C2(S(=O)(=O)c3ccccc3)CCC2)nc(-c2ccc(NC(=O)NCCF)cc2)n1` [Example 64s, 1-[4-[4-[1-(benzenesulfonyl)cyclobutyl]-6-[(3S)-3-methylmorpholin-4-yl]pyrimidin-2-yl]phenyl]-3-(2-fluoroethyl)urea], the IC50 was 2.96 nM. For `C[C@H]1COCCN1c1cc(C2(S(=O)(=O)C3CC3)CC2)nc(-c2ccc(NC(=O)NCCF)cc2)n1` [Example 64t, 1-[4-[4-(1-cyclopropylsulfonylcyclopropyl)-6-[(3S)-3-methylmorpholin-4-yl]pyrimidin-2-yl]phenyl]-3-(2-fluoroethyl)urea], the IC50 was determined as 11.4 nM. In the case of `C[C@H]1COCCN1c1cc(C2(S(=O)(=O)C3CC3)CC2)nc(-c2ccc(NC(=O)NCC(F)F)cc2)n1` [Example 64u, 1-[4-[4-(1-cyclopropylsulfonylcyclopropyl)-6-[(3S)-3-methylmorpholin-4-yl]pyrimidin-2-yl]phenyl]-3-(2,2-difluoroethyl)urea], the IC50 came out at 13.9 nM.

Turning to `C[C@H]1COCCN1c1cc(C2(S(=O)(=O)C3CC3)CC2)nc(-c2ccc(NC(=O)NCc3ncc[nH]3)cc2)n1` [Example 64v, 1-[4-[4-(1-cyclopropylsulfonylcyclopropyl)-6-[(3S)-3-methylmorpholin-4-yl]pyrimidin-2-yl]phenyl]-3-(1H-imidazol-2-ylmethyl)urea], the IC50 came out at 146 nM. As to `C[C@H]1COCCN1c1cc(C2(S(=O)(=O)C3CC3)CCC2)nc(-c2ccc(NC(=O)NC(C)(C)CO)cc2)n1` [Example 64w, 1-[4-[4-(1-cyclopropylsulfonylcyclobutyl)-6-[(3S)-3-methylmorpholin-4-yl]pyrimidin-2-yl]phenyl]-3-(1-hydroxy-2-methylpropan-2-yl)urea], the IC50 was 16.1 nM. The same measure for `C[C@@H](CO)NC(=O)Nc1ccc(-c2nc(N3CCOC[C@@H]3C)cc(C3(S(=O)(=O)C4CC4)CCC3)n2)cc1` [Example 64x, 1-[4-[4-(1-cyclopropylsulfonylcyclobutyl)-6-[(3S)-3-methylmorpholin-4-yl]pyrimidin-2-yl]phenyl]-3-[(2S)-1-hydroxypropan-2-yl]urea]: 7.61 nM.
